Measurements published in patent US10590132B2, “Selective estrogen receptor down-regulators” (AstraZeneca AB, priority 2017, dated 2020).

Assay: Human plasma protein binding (equilibrium dialysis)
Format: in vitro ADME
Conditions: dialysis 18 hours

SMILES	Human plasma protein binding (% free)
COc1nnc(OCCNCCCF)cc1[C@@H]1c2[nH]c3ccccc3c2C[C@@H](C)N1CC(F)(F)F [Example 112, 3-fluoro-N-(2-((6-methoxy-5-((1R,3R)-3-methyl-2-(2,2,2-trifluoroethyl)-2,3,4,9-tetrahydro-1H-pyrido[3,4-b]indol-1-yl)pyridazin-3-yl)oxy)ethyl)propan-1-amine]	1.5 % free
Cc1c(OCCNCCCF)ccc(F)c1[C@@H]1c2[nH]c3ccccc3c2C[C@@H](C)N1CC(F)(F)C(=O)O [Example 118, 2,2-difluoro-3-((1R,3R)-1-(6-fluoro-3-(2-((3-fluoropropyl)amino)ethoxy)-2-methylphenyl)-3-methyl-1,3,4,9-tetrahydro-2H-pyrido[3,4-b]indol-2-yl)propanoic acid]	8.4 % free
C[C@@H]1Cc2c([nH]c3ccc(F)cc23)[C@@H](c2c(F)cnc(OCCNCCCF)c2F)N1CC(F)(F)CO [Example 65, 3-((1R,3R)-1-(3,5-difluoro-2-(2-((3-fluoropropyl)amino)ethoxy)pyridin-4-yl)-6-fluoro-3-methyl-1,3,4,9-tetrahydro-2H-pyrido[3,4-b]indol-2-yl)-2,2-difluoropropan-1-ol]	1.9 % free
C[C@@H]1Cc2c([nH]c3ccc(F)cc23)[C@@H](c2c(F)cnc(OCCN(C)CCCF)c2F)N1CC(F)(F)CO [Example 67, 3-((1R,3R)-1-(3,5-difluoro-2-(2-((3-fluoropropyl)(methyl)amino)ethoxy)pyridin-4-yl)-6-fluoro-3-methyl-1,3,4,9-tetrahydro-2H-pyrido[3,4-b]indol-2-yl)-2,2-difluoropropan-1-ol]	1.6 % free
C[C@@H]1Cc2c([nH]c3cccc(F)c23)[C@@H](c2c(F)ccc(OCCNCCCF)c2F)N1CC(F)(F)CO [Example 62, 3-((1R,3R)-1-(2,6-difluoro-3-(2-((3-fluoropropyl)amino)ethoxy)phenyl)-5-fluoro-3-methyl-1,3,4,9-tetrahydro-2H-pyrido[3,4-b]indol-2-yl)-2,2-difluoropropan-1-ol]	1.2 % free
Cc1c(NCCNCCCF)ccc(F)c1[C@@H]1c2[nH]c3ccccc3c2C[C@@H](C)N1C[C@H](C)C(=O)O [Example 135, (S)-3-((1R,3R)-1-(6-fluoro-3-((2-((3-fluoropropyl)amino)ethyl)amino)-2-methylphenyl)-3-methyl-1,3,4,9-tetrahydro-2H-pyrido[3,4-b]indol-2-yl)-2-methylpropanoic acid]	32 % free
COc1ncc(OCCNCCCF)cc1[C@@H]1c2[nH]c3ccccc3c2C[C@@H](C)N1CC(F)(F)F [Example 36, 3-fluoro-N-(2-((6-methoxy-5-((1R,3R)-3-methyl-2-(2,2,2-trifluoroethyl)-2,3,4,9-tetrahydro-1H-pyrido[3,4-b]indol-1-yl)pyridin-3-yl)oxy)ethyl)propan-1-amine]	2 % free
Cc1c(OCCNCCCF)ccnc1[C@@H]1c2[nH]c3ccccc3c2C[C@@H](C)N1CC(F)(F)CO [Example 96, 2,2-difluoro-3-((1S,3R)-1-(4-(2-((3-fluoropropyl)amino)ethoxy)-3-methylpyridin-2-yl)-3-methyl-1,3,4,9-tetrahydro-2H-pyrido[3,4-b]indol-2-yl)propan-1-ol]	7.1 % free
Cc1c([C@@H]2c3[nH]c4ccccc4c3C[C@@H](C)N2C[C@H](C)C(=O)O)ccnc1OCCNCCCF [Example 132, (S)-3-((1R,3R)-1-(2-2-((3-(fluoropropyl)amino)ethoxy)-3-methylpyridin-4-yl)-3-methyl-1,3,4,9-tetrahydro-2H-pyrido[3,4-b]indol-2-yl)-2-methylpropanoic acid]	34 % free
C[C@@H]1Cc2c([nH]c3ccc(F)cc23)[C@@H](c2c(F)cnc(OCCNCCCF)c2F)N1CC1(F)CC1 [Example 109, N-(2-((3,5-difluoro-4-((1R,3R)-6-fluoro-2-((1-fluorocyclopropyl)methyl)-3-methyl-2,3,4,9-tetrahydro-1H-pyrido[3,4-b]indol-1-yl)pyridin-2-yl)oxy)ethyl)-3-fluoropropan-1-amine]	1.9 % free
COc1ccc(OC[C@@H](C)NCCCF)cc1[C@@H]1c2[nH]c3ccccc3c2C[C@@H](C)N1CC(F)(F)CO [Example 50, 2,2-difluoro-3-((1R,3R)-1-(5-((R)-2-((3-fluoropropyl)amino)propoxy)-2-methoxyphenyl)-3-methyl-1,3,4,9-tetrahydro-2H-pyrido[3,4-b]indol-2-yl)propan-1-ol]	7.1 % free
Cc1c(OCCNCCCF)cncc1[C@@H]1c2[nH]c3ccccc3c2C[C@@H](C)N1CC(F)(F)F [Example 38, 3-fluoro-N-(2-((4-methyl-5-((1R,3R)-3-methyl-2-(2,2,2-trifluoroethyl)-2,3,4,9-tetrahydro-1H-pyrido[3,4-b]indol-1-yl)pyridin-3-yl)oxy)ethyl)propan-1-amine]	0.91 % free
Cc1c(OCCNCCC(F)F)ccc(F)c1[C@@H]1c2[nH]c3ccc(F)cc3c2C[C@@H](C)N1C[C@@H](C)C(=O)O [Example 162, (R)-3-((1R,3R)-1-(3-(2-((3,3-difluoropropyl)amino)ethoxy)-6-fluoro-2-methylphenyl)-6-fluoro-3-methyl-1,3,4,9-tetrahydro-2H-pyrido[3,4-b]indol-2-yl)-2-methylpropanoic Acid]	27 % free
C[C@@H]1Cc2c([nH]c3ccccc23)[C@@H](c2cccc(OCCNCCCF)c2C(F)F)N1CC(F)(F)CO [Example 68, 3-((1R,3R)-1-(2-(difluoromethyl)-3-(2-((3-fluoropropyl)amino)ethoxy)phenyl)-3-methyl-1,3,4,9-tetrahydro-2H-pyrido[3,4-b]indol-2-yl)-2,2-difluoropropan-1-ol]	1.2 % free
Cc1c([C@@H]2c3[nH]c4ccccc4c3C[C@@H](C)N2CC(F)(F)CO)ccnc1OCCNCCCF [Example 103, 2,2-difluoro-3-((1R,3R)-1-(2-(2-((3-fluoropropyl)amino)ethoxy)-3-methylpyridin-4-yl)-3-methyl-1,3,4,9-tetrahydro-2H-pyrido[3,4-b]indol-2-yl)propan-1-ol]	2 % free
C[C@@H]1Cc2c([nH]c3ccccc23)[C@@H](c2nccc(OCCNCCCF)c2F)N1CC(F)(F)CO [Example 97, 2,2-difluoro-3-((1S,3R)-1-(3-fluoro-4-(2-((3-fluoropropyl)amino)ethoxy)pyridin-2-yl)-3-methyl-1,3,4,9-tetrahydro-2H-pyrido[3,4-b]indol-2-yl)propan-1-ol]	6.8 % free

Now from value to compound:

Human plasma protein binding (% free)	SMILES
7 % free	C[C@@H]1Cc2c([nH]c3ccccc23)[C@@H](c2nccc(NCCNCCCF)c2F)N1CC(F)(F)F [Example 94, N1-(3-fluoro-2-((1S,3R)-3-methyl-2-(2,2,2-trifluoroethyl)-2,3,4,9-tetrahydro-1H-pyrido[3,4-b]indol-1-yl)pyridin-4-yl)-N2-(3-fluoropropyl)ethane-1,2-diamine]
1.5 % free	COc1ccc(OCCNCCCF)cc1[C@@H]1c2[nH]c3ccccc3c2C[C@@H](C)N1CC(F)(F)F [Example 7, 3-Fluoro-N-(2-(4-methoxy-3-((1R,3R)-3-methyl-2-(2,2,2-trifluoroethyl)-2,3,4,9-tetrahydro-1H-pyrido[3,4-b]indol-1-yl)phenoxy)ethyl)propan-1-amine]
1.1 % free	COc1ccc(NCCNCCCF)c(F)c1[C@@H]1c2[nH]c3ccccc3c2C[C@@H](C)N1CC(F)(F)F [Example 90, N1-(2-fluoro-4-methoxy-3-((1R,3R)-3-methyl-2-(2,2,2-trifluoroethyl)-2,3,4,9-tetrahydro-1H-pyrido[3,4-b]indol-1-yl)phenyl)-N2-(3-fluoropropyl)ethane-1,2-diamine]
0.080 % free	C[C@@H]1Cc2c([nH]c3ccccc23)[C@@H](c2cccc(OCCNCCCF)c2Cl)N1CC(F)(F)F [Example 25, N-(2-(2-chloro-3-((1R,3R)-3-methyl-2-(2,2,2-trifluoroethyl)-2,3,4,9-tetrahydro-1H-pyrido[3,4-b]indol-1-yl)phenoxy)ethyl)-3-fluoropropan-1-amine]
0.52 % free	C[C@@H]1Cc2c([nH]c3ccccc23)[C@@H](c2c(F)c(F)cc(OCCNCCCF)c2F)N1CC(F)(F)F [Example 32, 3-fluoro-N-(2-(2,4,5-trifluoro-3-((1R,3R)-3-methyl-2-(2,2,2-trifluoroethyl)-2,3,4,9-tetrahydro-1H-pyrido[3,4-b]indol-1-yl)phenoxy)ethyl)propan-1-amine]
0.41 % free	C[C@@H]1Cc2c([nH]c3ccccc23)[C@@H](c2cc(F)cc(OCCNCCCF)c2F)N1CC(F)(F)F [Example 31, N-(2-(2,5-difluoro-3-((1R,3R)-3-methyl-2-(2,2,2-trifluoroethyl)-2,3,4,9-tetrahydro-1H-pyrido[3,4-b]indol-1-yl)phenoxy)ethyl)-3-fluoropropan-1-amine]
1.8 % free	COc1ncc(NCCNCCCF)cc1[C@@H]1c2[nH]c3ccccc3c2C[C@@H](C)N1CC(F)(F)F [Example 41, N1-(3-fluoropropyl)-N2-(6-methoxy-5-((1R,3R)-3-methyl-2-(2,2,2-trifluoroethyl)-2,3,4,9-tetrahydro-1H-pyrido[3,4-b]indol-1-yl)pyridin-3-yl)ethane-1,2-diamine]
1.2 % free	COc1cc(F)c(OCCNCCCF)cc1[C@@H]1c2[nH]c3ccccc3c2C[C@@H](C)N1CC(F)(F)F [Example 28, 3-fluoro-N-(2-(2-fluoro-4-methoxy-5-((1R,3R)-3-methyl-2-(2,2,2-trifluoroethyl)-2,3,4,9-tetrahydro-1H-pyrido[3,4-b]indol-1-yl)phenoxy)ethyl)propan-1-amine]
1 % free	C[C@@H]1Cc2c([nH]c3ccccc23)[C@@H](c2c(F)cnc(OCCNCCCF)c2F)N1CC(F)(F)F [Example 107, N-(2-((3,5-difluoro-4-((1R,3R)-3-methyl-2-(2,2,2-trifluoroethyl)-2,3,4,9-tetrahydro-1H-pyrido[3,4-b]indol-1-yl)pyridin-2-yl)oxy)ethyl)-3-fluoropropan-1-amine]
